{"source": "patent US7799770B2", "about": "“Solid body forms of mesoprogestin 11β-{4E-(hydroxyiminomethyl)-phenyl}-17α methoxymethyl-17β-methoxy-estra-4,9-dien-3-one” (Bayer Schering Pharma AG, priority 2000, dated 2010)", "key": {"[1]": {"experiment": "Shelf life / accelerated ICH-stability test", "assay_type": "physicochemical", "method": "In FIG. 5, an x-ray-powder diffractogram of amorphous 11β-[4E-(hydroxyiminomethyl)phenyl]-17α-methoxymethyl-17β-methoxy-estra-4,9-dien-3-one is depicted at time 0 (start), after 12 months at 25° C. and after 12 months at 40° C.\n(§1) By the stability, negative influences of such conversions on the bio-availability of the active ingredient are avoided."}, "progesterone receptor": {"target": "T1, progesterone receptor (Homo sapiens, UniProt P06401)", "T1 sequence (P06401 1-933)": "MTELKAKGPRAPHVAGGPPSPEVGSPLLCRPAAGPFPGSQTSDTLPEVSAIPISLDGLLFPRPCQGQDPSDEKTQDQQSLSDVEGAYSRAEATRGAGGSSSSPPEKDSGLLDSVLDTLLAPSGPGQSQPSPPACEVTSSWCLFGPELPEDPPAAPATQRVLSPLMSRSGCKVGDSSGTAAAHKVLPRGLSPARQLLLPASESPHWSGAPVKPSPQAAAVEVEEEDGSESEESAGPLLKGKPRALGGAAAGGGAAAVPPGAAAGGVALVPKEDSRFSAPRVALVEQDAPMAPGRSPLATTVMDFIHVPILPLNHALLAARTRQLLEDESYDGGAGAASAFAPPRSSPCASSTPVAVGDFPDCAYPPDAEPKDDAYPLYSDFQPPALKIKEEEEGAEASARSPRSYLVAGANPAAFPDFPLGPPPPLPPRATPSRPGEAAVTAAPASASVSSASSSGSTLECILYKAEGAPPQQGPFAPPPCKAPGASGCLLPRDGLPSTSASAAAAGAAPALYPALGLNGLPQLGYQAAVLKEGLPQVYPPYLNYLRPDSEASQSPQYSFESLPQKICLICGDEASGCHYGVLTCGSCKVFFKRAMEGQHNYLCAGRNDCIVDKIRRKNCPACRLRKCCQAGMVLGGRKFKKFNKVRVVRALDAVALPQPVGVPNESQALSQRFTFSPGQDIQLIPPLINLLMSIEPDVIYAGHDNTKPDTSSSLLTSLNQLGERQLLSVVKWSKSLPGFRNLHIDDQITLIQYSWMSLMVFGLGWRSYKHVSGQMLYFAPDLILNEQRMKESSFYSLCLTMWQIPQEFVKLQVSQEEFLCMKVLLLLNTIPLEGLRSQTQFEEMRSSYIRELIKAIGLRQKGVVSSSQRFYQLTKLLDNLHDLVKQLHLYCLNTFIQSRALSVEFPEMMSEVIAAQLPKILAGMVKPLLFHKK", "conditions": "according to EP-A-0 648 778 or DE-A-43 32 283; cited from earlier work"}, "[2]": {"tested_on": "antiglucocorticoidal activity", "conditions": "according to EP-A-0 648 778 or DE-A-43 32 283; cited from earlier work"}, "[3]": {"experiment": "Solubility studies (saturation solubility in water without and with 0.25% SDS)", "assay_type": "physicochemical", "method": "200 mg of substance was added at 25° C. into 50 ml of water (without and with 0.25% SDS (sodium lauryl sulfate)). Samples were taken after 0.5 hour, 2 hours, 5 hours and 24 hours.\nSampling: 0.45 μm filter attachment, dilution 1:1 with MeOH, HPLC."}, "[4]": {"experiment": "Stability of the physical structure during pharmaceutical processing (wet granulation, pelletizing)", "assay_type": "physicochemical", "excerpt": "as §1"}, "Solubility in toluene": {"experiment": "Solubility in toluene", "assay_type": "physicochemical", "excerpt": "The production of the solvate form that is suitable for the solid final form of the oxime can be associated, according to the invention, with the separation of the Z-isomer and the dioximes. By a specific use of the thermodynamic instability of suitable solvates, preferably the solvate of methyl-tert-butyl ether (MTBE) in a solvent environment that is suitable for this purpose, complete dissolution of the solvate lattice is possible far above the solubility limit and even close to room temperature. […] A so-called cold melting is carried out. This state can be kept stable by adding suitable solvents as recrystallization inhibitors for technical applications. The supersaturation state can be stabilized for hours in toluene solution by adding only 5% by volume of methanol. Then, by adding solvating agent-solvent (MTBE) at suitable concentration (e.g., 100-130% by volume of MTBE, relative to the toluene that is used), the solvate lattice is built up again, whereby the contaminants remain in solution for the most part."}}, "data": [{"compound": "COC[C@]1(OC)CC[C@H]2[C@@H]3CCC4=CC(=O)CCC4=C3[C@@H](c3ccc(/C=N/O)cc3)C[C@@]21C", "note": "[highly crystalline form of oxime J 867, 11β-[4E-(hydroxyiminomethyl)phenyl]-17α-methoxymethyl-17β-methoxy-estra-4,9-dien-3-one ansolvate]", "values": [{"measurement": "chemical stability compared with the amorphous form", "setting": "[1]; especially under stress (high temperatures and humidities)", "result": "higher than that of the amorphous form"}]}, {"compound": "COC[C@]1(OC)CC[C@H]2[C@@H]3CCC4=CC(=O)CCC4=C3[C@@H](c3ccc(/C=N/O)cc3)C[C@@]21C", "note": "[Oxime J867, 11β-[4E-(hydroxyiminomethyl)phenyl]-17α-methoxymethyl-17β-methoxy-estra-4,9-dien-3-one]", "values": [{"measurement": "activity on the progesterone receptor compared with RU 486 (mifepristone)", "setting": "progesterone receptor", "result": "same activity as RU 486 (mifepristone)"}, {"measurement": "antiglucocorticoidal activity compared with RU 486", "setting": "[2]", "result": "significantly reduced"}]}, {"compound": "COC[C@]1(OC)CC[C@H]2[C@@H]3CCC4=CC(=O)CCC4=C3[C@@H](c3ccc(/C=N/O)cc3)C[C@@]21C", "note": "[amorphous form of oxime J867, 11β-[4E-(hydroxyiminomethyl)phenyl]-17α-methoxymethyl-17β-methoxy-estra-4,9-dien-3-one]", "values": [{"measurement": "time for which the high supersaturation level remains stable", "setting": "[3]; in surfactant solution (sodium lauryl sulfate)", "result": "stable for several hours"}, {"measurement": "time for which the high supersaturation level remains stable", "setting": "[3]; in water", "result": "over 24 hours"}, {"measurement": "signs of recrystallization and/or chemical decomposition of the amorphous structure", "setting": "[1]; after 12 months, 40° C., 75% relative humidity", "result": "does not show any signs of a recrystallization and/or chemical decomposition"}, {"measurement": "physical structure during pharmaceutical processing (conversion amorphous to highly crystalline, E/Z isomerization)", "setting": "[4]", "result": "remains stable"}]}, {"compound": "COC[C@]1(OC)CC[C@H]2[C@@H]3CCC4=CC(=O)CCC4=C3[C@@H](c3ccc(/C=N/O)cc3)C[C@@]21C", "note": "[MTBE solvate, 11β-[4E-(hydroxyiminomethyl)phenyl]-17α-methoxymethyl-17β-methoxy-estra-4,9-dien-3-one]", "values": [{"measurement": "solubility in toluene", "setting": "Solubility in toluene", "result": 3.3, "unit": "% by weight"}]}]}
